Among the targets are HLA-DR DRB1*0901 (DR9) (Homo sapiens, UniProt P01903+P01911, A100R/A103E/D57H/D86V/F55Y/F60I/F76Y/I96F/K127E/L162R/M171V/P40D/Q125H/Q99R/R33Q/R42F/S133A/S66N/T210M/V115G/W38K/Y107V/Y59G/Y89S); HLA-DR DRB1*0401 (DR4) (Homo sapiens, UniProt P01903+P01911, A100K/A169T/F76Y/I96L/K127E/L162R/M171V/N62H/P40V/Q125Y/R42H/S133A/S149N/S66Y/V115G/V209L/W38E); HLA-DR DRB1*0701 (DR7) (Homo sapiens, UniProt P01903+P01911, A100R/A102G/A103Q/D57E/D86V/E43K/F76Y/K127E/L162R/M171V/P40G/Q125H/Q99D/R33Q/R42Y/R54Q/S133A/S66F/T210M/V115G/Y107V/Y59L/Y89S); HLA-DR DRB1*0405 (DR4) (Homo sapiens, UniProt P01903+P01911, A100R/A169T/D86S/F76Y/I96L/K127E/L162R/M171V/N62H/P40V/Q125Y/R42H/S133A/S149N/S66Y/V115G/V209L/W38E); HLA-DR DRB1*0301 (DR3) (Homo sapiens, UniProt P01903+P01911, A100K/A102G/A103R/A169T/F55Y/I96L/K41T/L162R/M171V/P40S/Q125H/Q178H/Q39Y/R42S/S66N/T106N/T262R/W38E/Y61H).

What all share (assay): biochemical
Common to all, as to format: binding

For a further experiment, the target named is HLA-DR DRB1*1302 (DR13) (Homo sapiens, UniProt P01903+P01911, A100E/A169T/K41T/L162R/M171V/P40S/Q125H/Q178H/Q39Y/Q99D/R42S/S66N/T262R/V115G/W38E/Y61H). The note with it: DRBI *1302.
HLA-DR DRB1*1302 (DR13), sequence (P01903 26-254 limits assumed, other chains not shown): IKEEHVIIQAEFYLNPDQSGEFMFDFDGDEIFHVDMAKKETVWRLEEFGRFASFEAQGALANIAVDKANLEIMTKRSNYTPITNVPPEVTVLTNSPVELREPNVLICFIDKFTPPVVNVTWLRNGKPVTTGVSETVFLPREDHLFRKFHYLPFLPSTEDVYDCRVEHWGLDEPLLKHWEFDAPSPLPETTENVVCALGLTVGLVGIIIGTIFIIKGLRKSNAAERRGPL
For a further experiment, the target named is HLA-DR DRB1*1101 (DR11) (Homo sapiens, UniProt P01903+P01911, A100R/A169T/A87E/I96F/K41T/L162R/M171V/P40S/Q125H/Q178H/Q39Y/Q99D/R42S/S66Y/T262R/V115G/W38E). As to conditions: DRB1 *1101.
HLA-DR DRB1*1101 (DR11), sequence (P01903 26-254 limits assumed, other chains not shown): as above
In a further experiment the target is HLA-DR DRB1*1501 (DR15) (Homo sapiens, UniProt P01903+P01911). The note with it: DRBI *1501.
The target in another experiment is HLA-DR DRB5*0101 (DR51) (Homo sapiens, UniProt P01903+Q30154). As to conditions: DRB5 *0101.
The target in another experiment is HLA-DR DRB4*0101 (DR53) (Homo sapiens, UniProt P01903+P13762, G164S). As to conditions: DRB4 *0101.
The target of the next experiment is HLA-DR DRB1*0101 (DR1) (Homo sapiens, UniProt P01903+P01911, A100R/D57E/F55L/F60I/F76Y/I96L/L162R/M171V/P40L/Q125E/R42F/V115G/Y59C). As to conditions: DRB1 *0101.

Results on eleven compounds are retold here after patent US20060079453A1, “Hla binding peptides and their uses” (priority 2002, published 2006).

Where two headings read alike, the source gives them in different places. No end group written: not given here.

HLA-DR DRB1*0301 (DR3), sequence (P01903 26-254 limits assumed, other chains not shown): as above

Take IDGVNHQHLPARRAE: the IC50 was greater than 39.9 µM on HLA-DR DRB1*0901 (DR9) (DRB1 *0901); greater than 11.5 µM on HLA-DR DRB1*1302 (DR13); greater than 56.2 µM against HLA-DR DRB1*1101 (DR11); greater than 36.8 µM on HLA-DR DRB1*1501 (DR15); 12.6 µM against HLA-DR DRB5*0101 (DR51); 34.3 µM on HLA-DR DRB1*0401 (DR4) (DRB1 *0401). The results for the IC50 at HLA-DR DRB1*0701 (DR7) (DRB1 *0701) and on HLA-DR DRB1*0405 (DR4) (DRB1 *0405) were greater than 18.6 µM and greater than 17 µM, respectively.
For the compound YYDYSVYGATLESIT, the IC50 was 1.4 µM against HLA-DR DRB1*0901 (DR9) (DRB1 *0901); 9.12 µM at HLA-DR DRB1*1101 (DR11); 1.11 µM at HLA-DR DRB1*1501 (DR15); 32.4 µM against HLA-DR DRB4*0101 (DR53); 1.01 µM at HLA-DR DRB1*0101 (DR1); greater than 51 µM against HLA-DR DRB5*0101 (DR51). This compound gave an IC50 at HLA-DR DRB1*0405 (DR4) (DRB1 *0405) of 0.23 µM.
With VVQLDIQSTKEDLRV, the IC50 at HLA-DR DRB1*0901 (DR9) (read-out: DRB1 *0901) is 13.9 µM; on HLA-DR DRB1*0401 (DR4) (read-out: DRB1 *0401) it was 11.1 µM; at HLA-DR DRB1*0701 (DR7) (read-out: DRB1 *0701) it was 3.76 µM; on HLA-DR DRB1*0405 (DR4) (read-out: DRB1 *0405) it was 0.046 µM.
For the compound RTAMFQDPQERPRKL, the IC50 against HLA-DR DRB1*0901 (DR9) (DRB1 *0901) was greater than 25.3 µM; at HLA-DR DRB1*1302 (DR13), 17.1 µM; against HLA-DR DRB1*1501 (DR15), 73.2 µM; against HLA-DR DRB4*0101 (DR53), 20.5 µM; on HLA-DR DRB1*0101 (DR1), 9.37 µM; against HLA-DR DRB5*0101 (DR51), 7.47 µM. Besides, the IC50 at HLA-DR DRB1*0401 (DR4) (DRB1 *0401) amounted to 28.2 µM; on HLA-DR DRB1*0701 (DR7) (DRB1 *0701) it was 32.9 µM; at HLA-DR DRB1*0405 (DR4) (DRB1 *0405), 7.98 µM.
In the case of VFEFAFKDLFVVYRD, the IC50 on HLA-DR DRB1*0901 (DR9) (DRB1 *0901) was 16.8 µM; on HLA-DR DRB1*1302 (DR13) it was 7.67 µM; at HLA-DR DRB1*1501 (DR15) it was 4.87 µM; at HLA-DR DRB4*0101 (DR53), 18.1 µM; against HLA-DR DRB1*0101 (DR1) it was 6.72 µM; at HLA-DR DRB5*0101 (DR51), greater than 10.7 µM. The IC50 at HLA-DR DRB1*0405 (DR4) (DRB1 *0405) amounted to 0.12 µM.
With RQDILDLWVYHTQGY, the IC50 against HLA-DR DRB1*1302 (DR13) was 6.78 µM; against HLA-DR DRB1*0301 (DR3) it was 98.3 µM; on HLA-DR DRB1*1101 (DR11), greater than 51.3 µM; on HLA-DR DRB1*1501 (DR15), 0.723 µM; at HLA-DR DRB4*0101 (DR53) it was 1.33 µM; on HLA-DR DRB1*0101 (DR1) it was 2.39 µM. Further, the IC50 against HLA-DR DRB5*0101 (DR51) came to 16.2 µM; on HLA-DR DRB1*0401 (DR4) (DRB1 *0401), 1.2 µM; against HLA-DR DRB1*0701 (DR7) (DRB1 *0701), 1.63 µM; on HLA-DR DRB1*0405 (DR4) (DRB1 *0405), 1.14 µM.
In the case of VPTLQDVVLELTPQT, the IC50 is greater than 30.6 µM at HLA-DR DRB1*0901 (DR9) (DRB1 *0901); 15 µM on HLA-DR DRB1*1302 (DR13); greater than 31.6 µM at HLA-DR DRB1*1101 (DR11); 1 µM against HLA-DR DRB4*0101 (DR53); 16.1 µM on HLA-DR DRB1*0101 (DR1); greater than 31.4 µM against HLA-DR DRB5*0101 (DR51). Also, the IC50 at HLA-DR DRB1*0401 (DR4) (DRB1 *0401) was 0.214 µM; on HLA-DR DRB1*0701 (DR7) (DRB1 *0701) it was greater than 35.4 µM; against HLA-DR DRB1*0405 (DR4) (DRB1 *0405), 5.41 µM.
As for QDVVLELTPQTEIDL, the IC50 was 1.68 µM on HLA-DR DRB1*0901 (DR9) (DRB1 *0901); greater than 31.6 µM against HLA-DR DRB1*1101 (DR11); greater than 33.1 µM against HLA-DR DRB1*1501 (DR15); 1.72 µM at HLA-DR DRB4*0101 (DR53); greater than 31.4 µM at HLA-DR DRB5*0101 (DR51); 0.083 µM on HLA-DR DRB1*0401 (DR4) (DRB1 *0401). In addition, the IC50 at HLA-DR DRB1*0405 (DR4) (DRB1 *0405) is 0.053 µM.
For the compound DLFVVYRDSIPHAAC, the IC50 against HLA-DR DRB1*0901 (DR9) (DRB1 *0901) stood at 2.37 µM; against HLA-DR DRB1*1302 (DR13), 11.2 µM; on HLA-DR DRB1*1501 (DR15) it was 2.83 µM; against HLA-DR DRB4*0101 (DR53) it was 2.68 µM; against HLA-DR DRB5*0101 (DR51), 10.7 µM; at HLA-DR DRB1*0401 (DR4) (DRB1 *0401), 0.082 µM. Also, the IC50 is 5.21 µM at HLA-DR DRB1*0701 (DR7) (DRB1 *0701) and 3.59 µM on HLA-DR DRB1*0405 (DR4) (DRB1 *0405).
For the compound `CC(C)C[C@H](NC(=O)[C@H](CCC(N)=O)NC(=O)[C@H](CCC(N)=O)NC(=O)[C@H](CC(C)C)NC(=O)[C@@H](NC(=O)[C@H](CCCNC(=N)N)NC(=O)[C@@H](N)CC(C)C)[C@@H](C)O)C(=O)N[C@@H](Cc1ccccc1)C(=O)N[C@@H](CC(C)C)C(=O)N[C@@H](CO)C(=O)N[C@H](C(=O)N[C@@H](CC(C)C)C(=O)N[C@@H](CO)C(=O)N[C@@H](Cc1ccccc1)C(=O)N[C@H](C(=O)O)C(C)C)[C@@H](C)O`, the IC50 was 0.055 µM against HLA-DR DRB1*1302 (DR13); 0.801 µM at HLA-DR DRB1*0301 (DR3); 0.208 µM against HLA-DR DRB1*1101 (DR11); 0.029 µM at HLA-DR DRB1*1501 (DR15); 0.0031 µM against HLA-DR DRB4*0101 (DR53); 0.0083 µM against HLA-DR DRB1*0101 (DR1). The IC50 came to 1.99 µM against HLA-DR DRB5*0101 (DR51), 0.018 µM against HLA-DR DRB1*0401 (DR4) (DRB1 *0401), 0.06 µM against HLA-DR DRB1*0701 (DR7) (DRB1 *0701) and 0.009 µM against HLA-DR DRB1*0405 (DR4) (DRB1 *0405).
With TEVLDFAFTDLTIVY, the IC50 is 0.349 µM against HLA-DR DRB1*0901 (DR9) (DRB1 *0901); greater than 13.1 µM at HLA-DR DRB1*1302 (DR13); greater than 18 µM at HLA-DR DRB1*1101 (DR11); 0.561 µM at HLA-DR DRB1*1501 (DR15); 2.07 µM against HLA-DR DRB1*0101 (DR1); greater than 62.3 µM at HLA-DR DRB5*0101 (DR51). Moreover, the IC50 against HLA-DR DRB1*0405 (DR4) (DRB1 *0405) is 0.871 µM.
